# Measurements taken from patent US20210139517A1, “BICYCLIC HETEROARYL COMPOUNDS AND USES THEREOF” (Revolution Medicines, Inc., priority 2019, published 2021).
# Columns and labels:
# [1] = molecular target: T1, SOS1 nucleotide exchange of wild-type KRAS (SOS1 catalytic domain residues 564-1049; KRAS residue 1-169) (Homo sapiens, UniProt Q07889); assay: Inhibition of SOS1 nucleotide exchange activity of KRAS (TR-FRET); type: biochemical; conditions: SOS1 nucleotide exchange of wild-type KRAS; three replicates; four-parameter logistic fit; read-out: TR-FRET IC50
# T1 sequence (Q07889 564-1049): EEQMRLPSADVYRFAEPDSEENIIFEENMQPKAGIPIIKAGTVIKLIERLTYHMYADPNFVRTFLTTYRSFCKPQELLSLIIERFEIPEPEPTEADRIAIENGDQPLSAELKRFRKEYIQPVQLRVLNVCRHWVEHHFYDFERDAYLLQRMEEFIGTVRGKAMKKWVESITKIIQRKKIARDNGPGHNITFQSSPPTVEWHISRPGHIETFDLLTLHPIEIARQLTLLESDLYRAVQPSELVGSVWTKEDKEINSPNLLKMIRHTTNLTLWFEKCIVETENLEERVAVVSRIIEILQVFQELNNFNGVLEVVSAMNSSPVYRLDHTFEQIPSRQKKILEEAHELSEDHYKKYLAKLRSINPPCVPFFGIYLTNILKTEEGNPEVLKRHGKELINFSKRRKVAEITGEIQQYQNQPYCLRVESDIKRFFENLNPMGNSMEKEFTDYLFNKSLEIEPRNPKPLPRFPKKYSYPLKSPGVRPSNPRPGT
# [2] = molecular target: T2, SOS1 catalytic domain (residues 564-1049) (Homo sapiens, UniProt Q07889); assay: SOS1 SPR binding affinity assay (Biacore 8K); conditions: avi-tagged SOS1 catalytic domain immobilized on streptavidin chip; equilibrium 1:1 binding fit; read-out: SOS1 SPR Equilibrium Kd
# T2 sequence (Q07889 564-1049): T1 sequence (Q07889 564-1049)
# [3] = tested on: SOS1 function in cells: cellular pERK in PC-9 cells (EGFR Ex19Del); assay: pERK potency assay in PC-9 cells (AlphaLISA SureFire Ultra p-ERK1/2); type: cell-based; conditions: Homo sapiens, PC-9, 1 h, 1 hour incubation
# Experimental: The purpose of this assay is tomeasure the ability of test compounds to inhibit SOS1 function in cells. SOS1 activates RAS proteins by catalyzing the conversion of RAS-GDP to RAS-GTP in response to receptor tyrosine kinase activation. […] The procedure described below measures the level of cellular pERK in response to test compounds in PC-9 cells (EGFR Ex19Del).
# PC-9 cells were grown and maintained using media and procedures recommended by the ATCC. On the day prior to compound addition, cells were plated in 384-well cell culture plates (40 μL/well) and grown overnight in a 37° C., 5% CO2 incubator. Test compounds were prepared in 10, 3-fold dilutions in DMSO, with a top concentration of 10 mM. On the day of the assay, 40 nL of test compound was added to each well of cell culture plate using an Echo550 liquid handler (LabCyte). Concentrations of test compound were tested in duplicate with highest test concentration being 10 μM. After compound addition, cells were incubated for 1 hour at 37° C., 5% CO2. Following incubation, culture medium was removed and cells were washed once with phosphate buffered saline.
# Cellular pERK level was determined using the AlphaLISA SureFire Ultra p-ERK1/2 Assay Kit (PerkinElmer). Cells were lysed in 25 μL lysis buffer, with shaking at 600 RPM at room temperature for 15 minutes. Lysate (10 μL) was transferred to a 384-well Opti-plate (PerkinElmer) and 5 μL acceptor mix was added. The plate was centrifuged at 1000 RPM for 1 minute, and incubated in the dark for 2 hours. Following this incubation, 5 μL of donor mix was added, the plate was sealed and centrifuged at 1000 RPM for 1 minute, and the mixture was incubated for 2 hours at room temperature. Signal was read on an Envision plate reader (PerkinElmer) using standard AlphaLISA settings. Analysis of raw data was carried out in Excel (Microsoft) and Prism (GraphPad). Signal was plotted vs. the decadal logarithm of compound concentration, and IC50 was determined by fitting a 4-parameter sigmoidal concentration response model.
SMILES,IC50 [1],Kd [2],IC50 [3]
"C[C@@H](Nc1ncnc2c1cc(N1CCOCC1)c(=O)n2C)c1cc(N)cc(C(F)(F)F)c1 [Example 12, 4-{[(1R)-1-[3-amino-5-(trifluoromethyl)phenyl]ethyl]amino}-8-methyl-6-(morpholin-4-yl)-7H,8H-pyrido[2,3-d]pyrimidin-7-one]",13.6 nM,7.94 nM,101 nM
"C[C@@H](Nc1ncnc2c1cc(N1CCOCC1)c(=O)n2C)c1cccc(C(F)(F)F)c1 [Example 13, 8-methyl-6-(morpholin-4-yl)-4-{[(1R)-1-[3-(trifluoromethyl)phenyl]-ethyl]amino}-7H,8H-pyrido[2,3-d]pyrimidin-7-one]",29.4 nM,28.3 nM,321 nM
"CC(=O)N1CCC(c2cc3c(N[C@H](C)c4cc(C(F)(F)F)cc(N)c4F)ncnc3n(C)c2=O)CC1 [Example 15, 6-(1-acetyl-4-piperidyl)-4-[[(1R)-1-[3-amino-2-fluoro-5-(trifluoromethyl)phenyl]ethyl]amino]-8-methyl-pyrido[2,3-d]pyrimidin-7-one]",90.4 nM,168 nM,391 nM
"Cc1nc(N[C@H](C)c2cccc(C(F)F)c2F)c2cc(C3CCN(C)CC3F)c(=O)n(C)c2n1 (stereo partly drawn) [Example 18, 4-[[(1R)-1-[3-(difluoromethyl)-2-fluoro-phenyl]ethyl]amino]-6-(3-fluoro-1-methyl-4-piperidyl)-2,8-dimethyl-pyrido[2,3-d]pyrimidin-7-one]",5.79 nM,16 nM,190 nM
"CC(=O)N1CCC(c2cc3c(N[C@H](C)c4cc(N)cc(C(F)(F)F)c4F)ncnc3n(C)c2=O)CC1 [Example 19, 6-(1-acetyl-4-piperidyl)-4-[[(1R)-1-[5-amino-2-fluoro-3-(trifluoromethyl)phenyl]ethyl]amino]-8-methyl-pyrido[2,3-d]pyrimidin-7-one]",12.3 nM,32.4 nM,49.2 nM
"C[C@@H](Nc1ncnc2c1cc(-c1ccnnc1)c(=O)n2C)c1cccc(C(F)F)c1F [Example 21, (R)-4-((1-(3-(difluoromethyl)-2-fluorophenyl)ethyl)amino)-8-methyl-6-(pyridazin-4-yl)pyrido[2,3-d]pyrimidin-7(8H)-one]",18 nM,32.7 nM,136 nM
"C[C@@H](Nc1ncnc2c1cc(C1(N)CCOCC1)c(=O)n2C)c1cccc(C(F)F)c1F [Example 31, 6-(4-aminooxan-4-yl)-4-{[(1R)-1-[3-(difluoromethyl)-2-fluorophenyl]ethyl]amino}-8-methyl-7H,8H-pyrido-[2,3-d]pyrimidin-7-one]",31.5 nM,42.8 nM,–
CO[C@]1(c2cc3c(N[C@H](C)c4cccc(C(F)F)c4F)ncnc3n(C)c2=O)CCN(C(C)=O)C1 [Example 32-19],8.82 nM,6.92 nM,–
"C[C@@H](Nc1ncnc2c1cc(C1CC3(C1)CS(=O)(=O)C3)c(=O)n2C)c1cccc(C(F)F)c1F [Example 33, 6-(4-{[(1R)-1-[3-(difluoromethyl)-2-fluorophenyl]ethyl]amino}-8-methyl-7-oxo-7H,8H-pyrido[2,3-d]pyrimi-din-6-yl)-2λ^6-thiaspiro[3.3]heptane-2,2-dione]",29.5 nM,33.4 nM,–
"C[C@@H](Nc1ncnc2c1cc(C1CCNCC1O)c(=O)n2C)c1cccc(C(F)F)c1F (stereo partly drawn) [Example 34, 4-(((R)-1-(3-(difluoromethyl)-2-fluorophenyl)ethyl)amino)-6-(3-hydroxypiperidin-4-yl)-8-methylpyrido[2,3-d]pyrimidin-7(8H)-one]",62.7 nM,72.9 nM,–
